87 compounds from PubChem BioAssay AID2305 (GlaxoSmithKline (GSK), 2010) can be followed below.

The experiment relates to P. falciparum 3D7 growth, pLDH absorbance. Put plainly: P. falciparum 3D7 growth inhibition, dose response, strain 3D7 (AID 2305).

Molecules are shown by their SMILES. “And” between values parts separate entries of the source, which are not always exact repeats. Identical values can stand only once.

On to `Nc1nc(N)c(-c2ccccc2)c(=O)[nH]1`, for which the 50% inhibitory concentration (IC50) (as a rule, the concentration at which inhibition is half-maximal) turned out to be 1000 nM.
For `CN1CCC[C@H]1COc1ccc(CN2CC[C@H](NC(=O)c3ccc(Cl)c(Cl)c3)C2)cc1Cl` the value was 1150 nM; for `Cc1cc(SC(C)(C)C)cc2c(Cl)c(C(N)=O)cnc12`, 1090 nM; for `O=C(Nc1ccc(Cl)cc1)Nc1ccc(-c2ccc(-c3nc4ccccc4[nH]3)cc2)cc1`, 50 nM.
Turning to `CC(C)(C)C(=O)Nc1c(-c2cc(=O)oc3cc4c(cc23)CCC4)oc2ccccc12`, the IC50 came out at 1260 nM.
To `CCN(CC)c1ccc(-c2nc3ncc(Cl)cc3[nH]2)cc1` belongs 1130 nM; to `Cc1cc(C)c2oc(-c3cccc(NC(=O)c4ccc([N+](=O)[O-])o4)c3C)nc2c1`, 1150 nM.
To `CCC1CCCCN1S(=O)(=O)c1ccc(NC(=O)c2cc(C)on2)cc1` (configuration not stated) belongs 1240 nM; to `CN1CCN(c2cc(-c3cccc(C(F)(F)F)c3)nc(-c3ccncc3)n2)CC1`, 730 nM.
For `Cc1cccc2[nH]c(-c3ccc(-c4cccc(NC(=O)c5cncn5C)c4)s3)nc12` the value was 640 nM; for `CC1CCCCN1CCCNc1nc(NCc2ccccc2)c2ccccc2n1` (configuration not stated), 950 nM; for `COCCNCc1cccc(C#Cc2cc3ncnc(Nc4ccc(OCc5cccc(F)c5)c(Cl)c4)c3s2)n1`, 740 nM.
The compound `Cc1cc(N[C@@H](Cc2ccccc2)C(=O)NCCOc2ccccc2)nc(NCCOc2ccccc2)n1` had an IC50 of 1360 nM.
For `COc1ccc(CNCCCCCCNCCc2ccc(Cl)cc2)cc1OC` the value was 1390 nM; for `O=C(Nc1ccc(N2CCCCC2)c(Cl)c1)c1ncn[nH]1`, 450 nM.
For `COc1ccc(CN(C)CCCc2ccc(NC(=O)c3cccc4c(=O)c5cccc(F)c5[nH]c34)cc2)cc1OC` the value was 940 nM; for `Cc1ccccc1CNc1noc(-c2sccc2Br)n1`, 380 nM.
`CCc1cn(C)c2c(N3CCCC3=O)cc(C(=O)N[C@@H](Cc3ccccc3)[C@H](O)CNC(C)(C)CCCC(C)C)cc12` registered an IC50 of 490 nM.
For `CCOc1cc(C(=O)NC2CCN(Cc3ccccc3)CC2)ccc1-c1nc2cc(Cl)c(F)cc2[nH]1` the value was 800 nM; for `O=C(Nc1cccc(-c2cccc(F)c2)c1)C1CCN(Cc2ccc(O)cc2)CC1`, 1730 nM.
To `O=C(CC1SC(N2N=C(c3cccs3)CC2c2ccccc2)=NC1=O)Nc1ccccc1F` (configuration not stated) belongs 1090 nM; to `Oc1c(C=Nn2cnnc2)sc2ccccc12`, 910 nM; to `CCOC(=O)c1[nH]c(-c2ccc(Cl)cc2)nc1NC(=S)NCCCN1CCOCC1`, 870 nM.
To `CN1CCC(C(=O)N(Cc2ccc(-c3ccc(CNCCc4ccc(S(C)(=O)=O)cc4)cn3)cc2)Cc2ccc3c(c2)OCO3)CC1` belongs 1000 nM; to `Fc1ccc2nc(-c3ccc(-c4ccc(CNCCc5ccncc5)cc4)cc3)[nH]c2c1`, 140 nM; to `Cn1cnc(CCNC(=O)c2cccc(-c3ccc(-c4nc5ccc(F)cc5[nH]4)cc3)c2)c1`, 940 nM.
`CCOC(=O)c1ccc(NC(=O)Nc2ccc(-c3cccc(-c4nc5ccccc5[nH]4)c3)cc2)cc1`: the IC50 came out at 140 nM.
On to `O=C(NC1CCC(CCN2Cc3cccc(C(F)(F)F)c3C2)CC1)c1cccc(-c2cccnc2)c1` (configuration not stated), for which the IC50 was 1020 nM.
To `Cn1nccc1C(=O)NCCNCc1ccc(-c2ccc(-c3nc4ccc(C(F)(F)F)cc4[nH]3)cc2)cc1` belongs 150 nM.
In turn, `CCOc1cc(C(C)C)ccc1C1CCN(CCCCNC(=O)c2ccc(NC(=O)c3ccc(Cl)cc3)cc2)CC1` gave an IC50 of 810 nM. Compared with the last compound, the IC50 is about 5.4-fold higher.
As for `CC(CN1CCN(C)CC1)C(=O)Nc1ccc(-c2cccc(-c3nc4ccccc4[nH]3)c2)cc1` (configuration not stated), the IC50 is 570 nM.
To `Cc1cc(NN=Cc2ccccc2Cl)c2ccccc2n1` belongs 900 nM.
The compound `CN(C(=O)c1ccccc1)[C@@H]1c2cc(C#N)ccc2OC(C)(C)[C@H]1O` showed an IC50 of 650 nM.
Compound `CN1CCCCC1CCc1cc(C(=O)Nc2ccc(-c3ccc(O)cc3)cc2)ccc1O` (configuration not stated) had a concentration for half-maximal inhibition (IC50) of 1110 nM.
To `Cc1cc(=O)c(-c2ccc(Oc3cccc(OC(F)(F)F)c3)cc2)c(C)[nH]1` belongs 200 nM; to `CCOc1c(CNCCCNc2nc3ccccc3[nH]2)cc(I)cc1OC`, 660 nM.
To `Cc1cc(N[C@@H](Cc2ccccc2)C(=O)NCCOc2ccccc2)nc(NCc2ccccc2C)n1` belongs 710 nM; to `Cn1nc(-c2ccc(NC(=O)Nc3cc(C(F)(F)F)ccc3F)cc2)c2cnc(NCCc3cnc[nH]3)nc21`, 810 nM.
To `COc1ccc2nc(/C=C/c3cccc4ccc(C)nc34)[nH]c2c1` belongs 790 nM; to `O=C(C=Cc1ccc(F)cc1)N1CCN(S(=O)(=O)c2ccc(Cl)cc2)CC1`, 630 nM; to `c1cncc(NCc2ccc(-c3cc4ccncc4cc3OC3CCNCC3)s2)c1`, 980 nM.
Compound `O=C(c1cc(C(=O)NCc2ccc(Cl)cc2)c(=O)n(Cc2ccc(Cl)cc2)c1)c1cc(F)ccc1O` registered a 50% inhibitory concentration (IC50) of 950 nM. This IC50 and that of the compound before are within 1.5-fold of each other.
With `c1ccc(Oc2ccc(Nc3ccnc4cc(-c5ccc(CNCCN6CCOCC6)o5)ccc34)cc2)cc1`, the half-maximal inhibitory concentration (IC50) was 440 nM.
With `CCCc1ccc2c(c1O)CCC(N(CCC)CCC)C2` (configuration not stated), the IC50 worked out at 890 nM.
For `CCCCN1CCN(Cc2cccc(NC(=O)c3ccc(Cl)c(Cl)c3)c2)CC1` the value was 1160 nM; for `O=C(/C=C/c1ccccc1Cl)NC1CCC(CN2[C@@H]3CC[C@H]2CC(c2c[nH]c4ccccc24)C3)CC1` (some centres not stated), 710 nM; for `CCCc1cc(Cc2cnc(N)nc2N)cc2c1OC(C)(C)C2`, 1080 nM.
In turn, `NC(N)=Nc1ccc(NC(=O)Nc2ccc(N=C(N)N)cc2)cc1` gave an IC50 of 390 nM.
As to `Cc1ccc(C)c(Cn2ccc3nc(N)nc(N)c32)c1`, the IC50 is 300 nM.
For `CCc1cc2c(N)nc(N)nc2nc1-c1ccccc1` the value was 950 nM.
To `O=C(NCc1ccc(Cl)c(Cl)c1)c1ccc(-c2nc3cc(F)c(F)cc3[nH]2)cc1` belongs 1050 nM; to `COC(=O)c1cccc(CNCc2cccc(-c3cccc(-c4nc5ccc(C(F)(F)F)cc5[nH]4)c3)c2)c1`, 170 nM.
For `Nc1nc(N)c2c(Oc3cc(Cl)c(Cl)c(Cl)c3)cccc2n1` the value was 800 nM; for `COc1ccc(/C=C/C(=O)N2CCc3cc4nccc(N5CCN6CCC[C@H]6C5)c4cc32)cc1`, 640 nM; for `COc1ccc2nccc([C@@H](O)CN3CC[C@H](NCc4nc5c(cc4Cl)SCC(=O)N5)[C@H](F)C3)c2c1`, 760 nM and 510 nM.
Turning to `CCN(CCCN1CCCCC1)c1cc(C)nc(Nc2ccc(C)cc2C(F)(F)F)n1`, the IC50 was determined as 540 nM.
`CN1CCN(c2ccnc3ccc(NC(=O)Nc4ccc5c(c4)CCCC5=O)cc23)CC1`: the IC50 stood at 130 nM. This IC50 is about 4.2-fold lower than that of the compound before.
For `O=C(NC1CCN(CCC(NC(=O)c2ccccc2)c2ccc(Cl)c(Cl)c2)CC1)c1ccc(Cl)cc1` (configuration not stated) the value was 1070 nM; for `O=C(Nc1cccc(N2CCC(NCc3cnn(-c4cccc(F)c4)c3)CC2)c1)c1ccncc1`, 1390 nM; for `CN1CCN(c2ccnc3ccc(NC(=O)Nc4cccc(C#N)c4)cc23)CC1`, 800 nM.
`COc1cc(NC(=O)c2ccc(-c3ccccc3)cc2)ccc1OCCCN1CCC(c2ccccc2)CC1` came in with an IC50 of 750 nM.
`CCCNCc1ccc(-c2ccc(CN(CCOC)C(=O)c3cscn3)cc2)nc1` came in with an IC50 of 180 nM.
For `Cn1nccc1C(=O)NCCNCc1cccc(-c2ccc(-c3nc4ccccc4[nH]3)cc2)c1` the value was 470 nM; for `CCN(CC)CCNC(=O)c1ccc(NC(=O)c2oc3c(Cl)cccc3c2C)cc1`, 700 nM.
As for `COC(=O)c1ccc2nc(-c3ccc(C(=O)NC4CCN(Cc5ccccc5)CC4)s3)[nH]c2c1`, the IC50 turned out to be 690 nM.
For `Cn1nc(C(F)(F)F)c(-c2ccc(Br)cc2)c1NC(=O)Cc1ccccc1F` the value was 160 nM; for `CC[C@H](NC(=O)c1c(CCCN2CCN(c3ccccc3)CC2)c(-c2ccccc2)nc2cc(O)ccc12)c1ccccc1`, 780 nM; for `Cc1cccc2[nH]c(-c3ccc(-c4cccc(CN5CCN(CCN6CCOCC6)CC5)c4)s3)nc12`, 150 nM.
Consider `O=C(Nc1c(F)cccc1F)c1cccc(-c2nn3ccccc3c2-c2ccnc(Nc3cccc(-c4cnco4)c3)n2)c1`, for which the IC50 came out at 360 nM.
For `CC(C)C[C@H](NC(=O)c1ccc(OCCN2CCOCC2)cc1)C(=O)N[C@H](/C=N/N1CCN(C)C1=O)CCc1ccccc1` the value was 290 nM.
Consider `CCN1CCN(c2ccc(Nc3ccnc4ccc(Br)cc34)cc2)CC1`, for which the IC50 worked out at 300 nM.
For `NOCCCCOc1cc(Cl)c(Cl)cc1Cl` the value was 170 nM.
With `CCNc1cc(C(=O)N[C@@H](Cc2ccccc2)[C@H](O)CNCCC(C)c2ccccc2)cc(N2CCCC2=O)c1` (some centres not stated), the IC50 worked out at 510 nM.
For `COc1cc(OC)c2c(C)cc(NCCCN3CCOCC3)nc2c1` the value was 1070 nM.
For `Cc1ncsc1CCN1C(=O)CC2(C1=O)C(=O)N(Cc1ccccc1)c1ccc(Cl)cc12` (configuration not stated) the value was 980 nM.
For the compound `COC(=O)c1sccc1NC(=S)NC1CCC(CN2CCC(c3c[nH]c4ccccc34)CC2)CC1` (configuration not stated), the IC50 was 920 nM and 570 nM.
For `COc1ccc(C(=O)NCCCCN2CCC(c3ccc4c(c3OC)CCCC4)CC2)cc1-c1ccc(C(F)(F)F)cc1` the value was 750 nM; for `CS(=O)(=O)c1ccc(CNCc2ccc(-c3ccc(-c4nc5ccc(C(F)(F)F)cc5[nH]4)cc3)cc2)cc1`, 710 nM; for `Cc1cccc2[nH]c(-c3cccc(-c4ccc(NC(=O)c5ccoc5)cc4)c3)nc12`, 700 nM.
In turn, `Cc1cc(O)cc2c(C3CCN(CC4CCC(NC(=O)/C=C/c5ccccc5Cl)CC4)CC3)c[nH]c12` (configuration not stated) registered an IC50 of 900 nM.
To `O=C(/C=C/c1cccc2ccccc12)NCCCCCN1CCC(c2c[nH]c3ccccc23)CC1` belongs 1140 nM; to `c1ccc(Oc2ccc(Nc3ccnc4cc(-c5csc(CN6CCCCC6)n5)ccc34)cc2)nc1`, 580 nM; to `CN(C)CCOc1ccc(-n2c(-c3nonc3N)nc3cncc(-c4ccc(F)cc4)c32)cc1`, 870 nM.
As for `COc1ccc(CN2CCCN(Cc3cccc(NC(=O)c4ccc(Cl)c(Cl)c4)c3)CC2)cc1`, the IC50 came out at 970 nM.
Regarding `COc1ccc2nc(C)cc(Nc3ccc(N4CCN(C)CC4)cc3)c2c1`, the IC50 was found to be 790 nM.
The compound `CCCCCNc1nc(Nc2ccccc2C)nc2ccccc12` had an IC50 of 740 nM.
Regarding `O=C(Nc1ccc(Br)cc1)N1CCC(n2c(-c3ccccc3)nc3cccnc32)CC1`, the IC50 is 760 nM.
